Data from patent US20230158152A1, “PROTEOLYSIS REGULATOR AND METHOD FOR USING SAME” (MEDSHINE DISCOVERY INC., priority 2020, published 2023).
Structures can show the parent of a compound that is named as a salt.

Key:
[1] = system: human acute myeloid leukemia cell MV4-11; assay: Anti-proliferative effect in human acute myeloid leukemia cell MV4-11 (CellTiter-Glo); format: cell-based; details: MV4-11, 96 h, cell proliferation, incubated for 4 days
Experimental: In this assay, the inhibitory effect of assay compounds on cell proliferation in human acute myeloid leukemia cell MV4-11 was detected by ATP fluorescence activity detection (CellTiter-Glo).
(§1) (1) Promega CellTiter-Glo luminescent cell viability assay kit (Promega-G7573). (2) 2104 EnVision® plate reader, PerkinElmer.
(§2) The tumor cell line was cultured in a 37° C., 5% CO2 incubator according to the above-mentioned culture conditions. Cells were passaged periodically, and cells in logarithmic growth phase were used for plating.
(1). Cells were stained with trypan blue and viable cells were counted; (2). The cell concentration was adjusted to an appropriate concentration; (3). 90 μL of cell suspension was added to each well of the culture plate, and each well contained 6000 cells. In the blank group and other wells, no cells were inoculated, and only 90 μL of culture medium was added; (4). The plate was incubated in an incubator at 37° C., 5% CO2, and 100% relative humidity overnight.
(1) Formulation of 10× drug solution: A sterile round bottom 96-well plate was used, and the concentration of mother solutions of WX007, WX008, WX009, WX010, WX011 and WX012 was 10 mM. 5 μL of compound was added to the first well with 5 μL of 1640 medium, and mixed well to obtain a concentration of 5 mM. 5 μL of compound from the first well was added to the third well containing 45 μL of 1640 medium and mixed well to obtain a concentration of 500 μM. 5 μL of compound from the third well was added to the fourth well containing 45 μL of 1640 medium and mixed well to obtain a concentration of 50 μM. 20 μL of compound from the fourth well was added to the fifth well containing 180 μL of 1640 medium and mixed well to obtain 5 μM mother solution. Another sterile round bottom 96-well plate was used, and 60 μL of 5 μM compound was added to the first well. 30 μL of 5 μM compound was added to the second well with 60 μL of 1640 medium, and so forth. Compounds were serially diluted 3-fold to obtain a total of 9 concentrations. To the blank control was added an equal volume of DMSO in the same dilution way.
(2) Formulation of drug solution with the final concentration: 10 μL of the 10× drug solution as prepared above was added to 90 μL of culture medium in triplicate. To the control group was added an equal volume of DMSO solution, and the cell plate was flicked, so that the solution was mixed well. To the blank group was added 10 μL of 1640 medium. The plate was gently taped, so that the solution was mixed well. The plate was placed back in 37° C., 5% CO2 incubator and incubated for 4 days.
(1) Formulation of the drug solution: A sterile round-bottom 96-well plate was used, and the stock concentration of each compound was 10 mM. 2 μL of compound in 18 μL of DMSO was added to the first well and the mixture was mixed well to obtain a concentration of 1 mM; 10 μL of compound from the first well was added to the third well containing 90 μL of 1640 medium and the mixture was mixed well to obtain a concentration of 100 μM;
(2) For WX058, WX059, WX060 and WX042, 12 μL of solution from the third well obtained above was added to the fourth well containing 108 μL of 1640 medium and the mixture was mixed well to obtain a drug with 10 μM maximum concentration.
(3) Another new sterile round bottom 96-well plate was used, and 60 μL of each drug with the maximum concentration in step (2) was placed in the first well. 60 μL of solution from the first well was added to the second well with 60 μL 1640 medium, and so forth. Compounds were serially diluted 2-fold to obtain a total of 9 concentrations.
(4) For the blank control group, an equal volume of DMSO was added in the same dilution way.
(5) 10 μL of the solution with gradient drug concentrations prepared as above was added to 90 μL of culture medium in triplicate. For the control group, an equal volume of DMSO solution was added. The cell plate was gently tapped, so that the solution was mixed well. […]

[2] = molecular target: T1, Recombinant human-derived ALK (Homo sapiens, UniProt Q9UM73); assay: Inhibitory activity of compounds against ALK kinase (time-resolved fluorescence resonance energy transfer); format: biochemical; details: 30 μM ATP, 50 nM ULight-poly GT peptide
T1 construct: BAG10812.1; 1058-1620 (terminal) amino acids; GST (N); made in house
T1 sequence (Q9UM73 1058-1620): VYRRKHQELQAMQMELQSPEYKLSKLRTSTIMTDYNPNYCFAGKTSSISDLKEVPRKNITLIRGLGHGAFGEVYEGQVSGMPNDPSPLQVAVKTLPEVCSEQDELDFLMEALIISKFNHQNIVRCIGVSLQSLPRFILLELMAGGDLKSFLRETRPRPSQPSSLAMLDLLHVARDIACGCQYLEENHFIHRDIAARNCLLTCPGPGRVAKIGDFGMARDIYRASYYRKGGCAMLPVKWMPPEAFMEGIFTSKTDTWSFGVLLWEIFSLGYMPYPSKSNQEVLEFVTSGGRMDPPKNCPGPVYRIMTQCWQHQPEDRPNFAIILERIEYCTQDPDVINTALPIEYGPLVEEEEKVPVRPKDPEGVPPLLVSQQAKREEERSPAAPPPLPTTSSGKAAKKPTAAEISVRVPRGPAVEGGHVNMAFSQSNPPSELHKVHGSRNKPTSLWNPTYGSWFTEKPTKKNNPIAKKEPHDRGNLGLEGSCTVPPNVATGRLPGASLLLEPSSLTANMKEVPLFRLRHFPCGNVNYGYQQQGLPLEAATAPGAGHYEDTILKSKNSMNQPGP
Experimental: The inhibitory activity of the compounds on ALK kinase was detected by time-resolved fluorescence resonance energy transfer method, that is, the ratio of fluorescence signals at 665 nm/615 nm was used to represent the activity of the enzyme.
Assay buffer solution: 50 mM 2-[4-(2-hydroxyethyl)-1-piperazinyl]ethanesulfonic acid buffer solution (HEPES) (pH 7.5), 10 mM MgCl2, 1 mM EDTA 0.01%, polyoxyethylene lauryl ether (Brij 35), 2 mM dithiothreitol (DTT).
Enzyme: Recombinant human-derived ALK (gene accession number: BAG10812.1; 1058-1620 (terminal) amino acids) was expressed with a N-terminal GST fusion protein (90 kDa) using a baculovirus expression system.
Enzyme substrate: 50 nM ULight-poly GT polypeptide.
Detection: europium-labeled anti-phosphotyrosine (PT66) antibody.
1. Compounds dissolved in 100% DMSO were added to 384-well plates by acoustic technique; 2. Recombinant human-derived ALK enzyme and enzyme substrate (50 nM ULight-poly GT peptide) or zymolyte (30 μM ATP) were dissolved in freshly prepared assay buffer; 3. The above ALK enzyme and enzyme substrate in the buffer solution were transferred to reaction wells; 4. Then, the zymolyte in the buffer solution was added to the above reaction wells to initiate the reaction; 5. The plate was incubated at room temperature for 1 hour; 6. The detection mixture (PT66 antibody and EDTA) was added to terminate the reaction, and the mixture was incubated at room temperature for 60 minutes; 7. Then, the plate was read using a microplate reader to obtain the ratio of fluorescence signals at 665 nm/615 nm.
Data analysis: Emission ratio (665 nm/615 nm) in the original data was involved in the calculation of the inhibition rate. The concentration and inhibition rate were analyzed using XLfit software 205 mode (4 Parameters Logistic Model) to obtain IC50 value and curve.

[3] = system: human lung cancer cell NCI-H2228; assay: Anti-proliferative effect in human lung cancer cell NCI-H2228 (CellTiter-Glo); format: cell-based; details: NCI-H2228, 72 h, cell proliferation, cultured for 3 days
Experimental: In this assay, the inhibitory effect of assay compounds on cell proliferation was assayed in human lung cancer cell NCI-H2228.
as §1, §2
(1). Cells were stained with trypan blue and viable cells were counted; (2). The cell concentration was adjusted to an appropriate concentration;
(3). 90 μL of cell suspension was added to each well of the culture plate as shown in the table above, and cell-free culture medium was added to the blank control well; (4). The plate was incubated in an incubator at 37° C., 5% CO2, and 100% relative humidity overnight.
Preparation of a mother solution storage plate with 400 times the starting compound concentration: the compounds were diluted serially with DMSO from the highest concentration to the lowest concentration. The plate was prepared freshly every time it was used.
(1). 78 μL of cell culture medium was added to a 96-well plate with a V-shaped bottom. […]
(1). […] The culture plate was left at room temperature for 10 minutes to stabilize the luminescence signal; (9). The luminescent signal was detected on a 2104 EnVision plate reader. […]

[4] = system: human lung cancer NCI-H2228 cells subcutaneous xenograft tumor; assay: In vivo pharmacodynamic study in subcutaneous xenograft tumor NOD SCID mouse model of human lung cancer NCI-H2228 cells; parameters: species or system NOD SCID mice; details: 50 mg/kg subcutaneous injection once a day
Experimental: Human lung cancer cell NCI-H2228 (ATCC® CRL-5935™) was cultured in vitro in an adherent monolayer in RPMI 1640 medium supplemented with 10% fetal bovine serum, 100 U/mL penicillin and 100 μg/mL streptomycin in an incubator at 37° C. and 5% CO2. Cells were passaged by routine digestion with trypsin-EDTA twice a week. When the cell saturation was 80%-90% and the number met the requirement, the cells are collected, counted, and inoculated.
NOD SCID mice, female, 6-8 weeks old, weighing 18-22 grams.
0.2 mL (10×10^6 cells) of NCI-H2228 cells (with matrigel, v/v 1:1) were subcutaneously inoculated into the right back of each mouse. The administration by group was started when the average tumor volume reached 171 mm^3. One administration cycle comprised seven days, with administration once a day. The assay compounds were administered by subcutaneous injection for a total of four cycles. The subcutaneous injection doses of the assay compounds WX001 and WX002 were both 50 mg/kg. Tumor diameter was measured twice a week with a vernier caliper, and tumor volume was measured in cubic millimeters and calculated by the following formula: V=0.5a×b^2, where a and b are the long and short diameters of the tumor, respectively. The tumor-inhibitory efficacy of the assay compounds was evaluated by using TGI (%). TGI (%) reflects a tumor growth inhibition rate. TGI (%)=[1−(Average tumor volume at the end of administration of a treatment group−Average tumor volume at the beginning of administration of the treatment group)/(Average tumor volume at the end of treatment of a vehicle control group−Average tumor volume at the beginning of treatment of the vehicle control group)]×100%.

Row | IC50 [1] [nM] | Compound | further results
1 | 202 | Cc1sc2c(c1C)C(c1ccc(Cl)cc1)=N[C@@H](CC(=O)NCCOc1ccc3c(ccc4occ(C5CCC(=O)NC5=O)c43)c1)c1nnc(C)n1-2 (some centres unmarked) [WX007] | –
2 | 73.8 | Cc1sc2c(c1C)C(c1ccc(Cl)cc1)=N[C@@H](CC(=O)NCCOCCOc1ccc3c(ccc4occ(C5CCC(=O)NC5=O)c43)c1)c1nnc(C)n1-2 (some centres unmarked) [WX011] | –
3 | – | Cc1cc(Nc2ncc(Cl)c(Nc3ccccc3S(=O)(=O)C(C)C)n2)c(OC(C)C)cc1C1CCN(C(=O)COc2ccc3occ(C4CCC(=O)NC4=O)c3c2)CC1 (centres unmarked) [WX003] | IC50 [2]: 33.8 nM
4 | 22.5 | Cc1sc2c(c1C)C(c1ccc(Cl)cc1)=N[C@@H](CC(=O)NCCOCCOCCOc1ccc3c(ccc4occ(C5CCC(=O)NC5=O)c43)c1)c1nnc(C)n1-2 (some centres unmarked) [WX008] | –
5 | – | Cc1cc(Nc2ncc(Cl)c(Nc3ccccc3S(=O)(=O)C(C)C)n2)c(OC(C)C)cc1C1CCN(CC(=O)NCc2ccc3c(ccc4occ(C5CCC(=O)NC5=O)c43)c2)CC1 (centres unmarked) [WX002 hydrochloride] | IC50 [2]: 15.6 nM; IC50 [3]: 160 nM; Tumor volume (Day 1) ([4]; Day 1): 172 ± 11 mm^3; TGI (Day 28) ([4]; Day 28): 100.38%; Tumor volume (Day 28) ([4]; Day 28): 169 ± 30 mm^3
6 | 61.3 | Cc1sc2c(c1C)C(c1ccc(Cl)cc1)=N[C@@H](CC(=O)NCCNc1ccc3c(ccc4occ(C5CCC(=O)NC5=O)c43)c1)c1nnc(C)n1-2 (some centres unmarked) [WX010] | –
7 | 70.6 | Cc1sc2c(c1C)C(c1ccc(Cl)cc1)=N[C@@H](CC(=O)NCCCCCCOc1ccc3c(ccc4occ(C5CCC(=O)NC5=O)c43)c1)c1nnc(C)n1-2 (some centres unmarked) [WX012] | –
8 | – | Cc1cc(Nc2ncc(Cl)c(Nc3ccccc3S(=O)(=O)C(C)C)n2)c(OC(C)C)cc1C1CCN(CCOc2ccc3occ(C4CCC(=O)NC4=O)c3c2)CC1 (centres unmarked) [WX006] | IC50 [2]: 12.2 nM
9 | 35.4 | Cc1sc2c(c1C)C(c1ccc(Cl)cc1)=N[C@@H](CC(=O)NCCCNC(=O)COc1ccc3occ(C4CCC(=O)NC4=O)c3c1)c1nnc(C)n1-2 (some centres unmarked) [WX042] | –
10 | 51.7 | Cc1sc2c(c1C)C(c1ccc(Cl)cc1)=N[C@@H](CC(=O)NCCCCCCNc1ccc3c(ccc4occ(C5CCC(=O)NC5=O)c43)c1)c1nnc(C)n1-2 (some centres unmarked) [WX009] | –

Row | Compound | IC50 [1] [nM] | further results
11 | Cc1sc2c(c1C)C(c1ccc(Cl)cc1)=N[C@@H](CC(=O)NCCCCOc1ccc3occ(C4CCC(=O)NC4=O)c3c1)c1nnc(C)n1-2 (some centres unmarked) [WX060] | 17 | –
12 | Cc1sc2c(c1C)C(c1ccc(Cl)cc1)=N[C@@H](CC(=O)NCCCOc1ccc3occ(C4CCC(=O)NC4=O)c3c1)c1nnc(C)n1-2 (some centres unmarked) [WX058] | 11.3 | –
13 | Cc1sc2c(c1C)C(c1ccc(Cl)cc1)=N[C@@H](CC(=O)NCCOc1ccc3occ(C4CCC(=O)NC4=O)c3c1)c1nnc(C)n1-2 (some centres unmarked) [WX059] | 16.6 | –
